Measurements: publication PMC3621123 (Journal of medicinal chemistry, 2013)
“And” between values parts separate entries of the source, which are not always exact repeats. Equal entries are not always repeated. Where two headings read alike, the source gives them in different places.

Assays:
BasE [1] = biological target: T1, BasE (Acinetobacter baumannii, UniProt A0A0D5YGP3); conditions: read-out: KD1, equilibrium dissociation constant of probe 14 for BasE; cited from earlier work
A. baumannii = conditions: ref unpublished results, Brian Beck, Laura Celia, ATCC; cited from earlier work
E. coli = conditions: ref unpublished results, Brian Beck, Laura Celia, ATCC; cited from earlier work
K. pneumoniae = conditions: ref unpublished results, Brian Beck, Laura Celia, ATCC; cited from earlier work
P. aeruginosa = conditions: ref unpublished results, Brian Beck, Laura Celia, ATCC; cited from earlier work
BasE [2] = biological target: T1, BasE; assay: biochemical; type: binding; conditions: for fold loss of affinity/potency toward BasE relative to 15: ratio of KD to lead compound 15; for Kd: KD (nM) BasE, FP displacement, 20 nM Fl-Sal-AMS 14, 200 nM BasE, pH 7.5, 25 °C; for fold increase in affinity toward BasE relative to 15: ratio of KD of lead compound 15 to compound
MbtA = MbtA (Mycobacterium tuberculosis, UniProt P71716); assay: Fluorescence polarization displacement of Fl-Sal-AMS 14 from MbtA; type: binding; conditions: for fold loss of affinity toward MbtA relative to 15: ratio of KD to lead compound 15
Chain of MbtA (P71716 whole entry): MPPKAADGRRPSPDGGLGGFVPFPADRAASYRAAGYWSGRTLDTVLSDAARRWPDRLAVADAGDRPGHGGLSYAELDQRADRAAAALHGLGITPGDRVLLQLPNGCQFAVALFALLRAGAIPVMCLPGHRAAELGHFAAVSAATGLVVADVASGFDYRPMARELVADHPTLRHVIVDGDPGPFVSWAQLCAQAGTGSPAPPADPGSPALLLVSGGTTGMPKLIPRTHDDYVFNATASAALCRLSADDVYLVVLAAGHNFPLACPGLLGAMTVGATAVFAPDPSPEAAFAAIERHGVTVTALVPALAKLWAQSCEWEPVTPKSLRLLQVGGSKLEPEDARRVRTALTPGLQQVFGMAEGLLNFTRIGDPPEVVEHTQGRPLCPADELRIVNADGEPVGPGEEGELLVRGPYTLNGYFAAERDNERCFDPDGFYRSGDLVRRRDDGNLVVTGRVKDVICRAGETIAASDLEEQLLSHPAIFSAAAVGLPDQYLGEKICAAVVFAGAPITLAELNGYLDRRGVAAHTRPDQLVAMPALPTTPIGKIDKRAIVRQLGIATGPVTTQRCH

For “22-O-{2-[2-(2-{[(fluorescein-5-yl)carbonyl]amino}ethoxy)ethoxy]ethoxy}-52-O-[N-(salicyl)sulfamoyl]adenosine [Compound 14]”, the Kd (BasE [1]) is listed as 0.0843 µM.

In the case of Nc1ncnc2c1ncn2[C@@H]1O[C@H](COS(=O)(=O)NC(=O)c2cccc(O)c2O)[C@@H](O)[C@H]1O [2,3-DHB-AMS, 5′-O-[N-(2,3-dihydroxybenzoyl)sulfamoyl]adenosine], the “activity against A. baumannii” value (A. baumannii) is listed as “no activity”, the “activity against E. coli” value (E. coli) is listed as “no activity” and the “activity against K. pneumoniae” value (K. pneumoniae) is listed as “no activity”. The “activity against P. aeruginosa” value (P. aeruginosa) was “no activity”.

For O=C(O)c1cc(-c2ccccc2)cc2c1cnn2Cc1ccncc1 [Compound 16, 6-Phenyl-1-(pyridin-4-ylmethyl)-1H-indazole-4-carboxylic acid], the “fold loss of affinity/potency toward BasE relative to 15” value (BasE [2]) was 2 fold.

For O=C(O)c1cc(-c2ccccc2)cc2c1ccn2Cc1ccncc1 [Compound 17, 6-Phenyl-1-(pyridin-4-ylmethyl)-1H-indole-4-carboxylic acid], the “fold loss of affinity/potency toward BasE relative to 15” value (BasE [2]) was 1400 fold.

For CCOC(=O)c1cc(-c2ccccc2)nc2c1cnn2Cc1ccncc1 [Compound 18, Ethyl 6-phenyl-1-(pyridin-4-ylmethyl)-1H-pyrazolo[3,4-b]pyridine-4-carboxylate], the “fold loss of affinity/potency toward BasE relative to 15” value (BasE [2]) was 60 fold.

With OCc1cc(-c2ccccc2)nc2c1cnn2Cc1ccncc1 [Compound 19, 4-Hydroxymethyl-6-phenyl-1-(pyridin-4-ylmethyl)-1H-pyrazolo[3,4-b]pyridine] the “fold loss of affinity/potency toward BasE relative to 15” value (BasE [2]) was 2.8 fold and 3 fold.

For Nc1cc(-c2ccccc2)nc2c1cnn2Cc1ccncc1 [Compound 21, 6-Phenyl-1-(pyridin-4-ylmethyl)-1H-pyrazolo[3,4-b]pyridin-4-amine], the “fold loss of affinity/potency toward BasE relative to 15” value (BasE [2]) was “approximately 6 fold”.

With NC(=O)c1cc(-c2ccccc2)nc2c1cnn2Cc1ccncc1 [Compound 22, 6-Phenyl-1-(pyridin-4-ylmethyl)-1H-pyrazolo[3,4-b]pyridine-4-carboxamide] the “fold loss of affinity/potency toward BasE relative to 15” value (BasE [2]) was 1.8 fold and 2 fold.

For O=C(O)c1cc(-c2ccccc2)nc2c1cnn2Cc1ccc(O)cc1 [Compound 32, 1-(4-Hydroxybenzyl)-6-phenyl-1H-pyrazolo[3,4-b]pyridine-4-carboxylic acid], the “fold loss of affinity/potency toward BasE relative to 15” value (BasE [2]) was 15 fold.

In the case of Cc1ccc(-c2cc(C(=O)O)c3cnn(Cc4ccncc4)c3n2)cc1 [Compound 39], the “fold increase in affinity toward MbtA relative to 15” value (MbtA; ratio of KD of lead compound 15 to compound) is reported as 2.6 fold.

With O=C(O)c1cc(-c2ccccc2O)nc2c1cnn2Cc1ccncc1 [Compound 40] the “fold loss of affinity/potency toward BasE relative to 15” value (BasE [2]) was 7 fold.

For O=C(O)c1cc(-c2ccc(O)cc2)nc2c1cnn2Cc1ccncc1 [Compound 42, 6-(4-Hydroxyphenyl)-1-(pyridin-4-ylmethyl)-1H-pyrazolo[3,4-b]pyridine-4-carboxylic acid], the Kd (BasE [2]) was less than 10 nM and the “fold increase in affinity toward BasE relative to 15” value (BasE [2]) was “more than 4 fold”.

For O=C(O)c1cc(-c2cccc(Cl)c2)nc2c1cnn2Cc1ccncc1 [Compound 45], the Kd (BasE [2]) was less than 10 nM and the “fold increase in affinity toward BasE relative to 15” value (BasE [2]) was “more than 4 fold”.

In the case of Nc1ccc(-c2cc(C(=O)O)c3cnn(Cc4ccncc4)c3n2)cc1 [Compound 52], the “fold loss of affinity/potency toward BasE relative to 15” value (BasE [2]) is reported as 2.2 fold.

In the case of CC(=O)Nc1ccc(-c2cc(C(=O)O)c3cnn(Cc4ccncc4)c3n2)cc1 [Compound 54], the “fold loss of affinity/potency toward BasE relative to 15” value (BasE [2]) is reported as “over 20 fold”.

For O=C(O)c1ccc(-c2cc(C(=O)O)c3cnn(Cc4ccncc4)c3n2)cc1 [Compound 58], the “fold loss of affinity toward MbtA relative to 15” value (MbtA) was 2 fold and the “fold loss of affinity/potency toward BasE relative to 15” value (BasE [2]) was “over 20 fold”.

For COc1ccc(-c2cc(C(=O)O)c3cnn(Cc4ccncc4)c3n2)cc1 [Compound 62], the “fold loss of affinity/potency toward BasE relative to 15” value (BasE [2]) was 2.2 fold.

For O=C(O)c1cc(-c2ccc(OCc3ccccc3)cc2)nc2c1cnn2Cc1ccncc1 [Compound 67], the Kd (BasE [2]) was 2 nM and < 10 nM and the “fold increase in affinity toward BasE relative to 15” value (BasE [2]) was 17 fold.

For COc1ccc(COc2ccc(-c3cc(C(=O)O)c4cnn(Cc5ccncc5)c4n3)cc2)cc1 [Compound 68], the “fold less potent than 67 toward BasE” value (BasE [2]; relative to p-benzyloxy 67) was 21 fold.

In the case of O=C(c1ccccc1)c1ccc(-c2cc(C(=O)O)c3cnn(Cc4ccncc4)c3n2)cc1 [Compound 70], the Kd (BasE [2]) is reported as 19 nM and the “fold increase in affinity toward BasE relative to 15” value (BasE [2]) is reported as 2 fold.

For O=C(O)c1cc(-c2ccc(-c3ccccc3)cc2)nc2c1cnn2Cc1ccncc1 [Compound 72], the “fold loss of affinity/potency toward BasE relative to 15” value (BasE [2]) was 3.5 fold.

In the case of O=C(O)c1cc(-c2ccco2)nc2c1cnn2Cc1ccncc1 [Compound 75], the “fold loss of affinity/potency toward BasE relative to 15” value (BasE [2]) is reported as ~ 10 fold.

In the case of O=C(O)c1cc(-c2cccs2)nc2c1cnn2Cc1ccncc1 [Compound 76], the “fold loss of affinity/potency toward BasE relative to 15” value (BasE [2]) is reported as ~ 10 fold.

In the case of Cc1ccsc1-c1cc(C(=O)O)c2cnn(Cc3ccncc3)c2n1 [Compound 77], the “fold loss of affinity/potency toward BasE relative to 15” value (BasE [2]) is reported as 9 fold.

For Cc1csc(-c2cc(C(=O)O)c3cnn(Cc4ccncc4)c3n2)c1 [Compound 78], the “fold loss of affinity/potency toward BasE relative to 15” value (BasE [2]) was 2.4 fold.

For Cc1ccc(-c2cc(C(=O)O)c3cnn(Cc4ccncc4)c3n2)s1 [Compound 79], the Kd (BasE [2]) was less than 10 nM and the “fold increase in affinity toward BasE relative to 15” value (BasE [2]) was 5 fold.

For O=C(O)c1cc(-c2cncc3ccccc23)nc2c1cnn2Cc1ccncc1 [Compound 86], the “fold loss of affinity/potency toward BasE relative to 15” value (BasE [2]) was 215 fold.

For O=C(O)c1cc(-c2ccc3[nH]ccc3c2)nc2c1cnn2Cc1ccncc1 [Compound 87], the “fold loss of affinity/potency toward BasE relative to 15” value (BasE [2]) was 1.7 fold.

For C=Cc1cc(C(=O)O)c2cnn(Cc3ccncc3)c2n1 [Compound 91], the “fold loss of affinity/potency toward BasE relative to 15” value (BasE [2]) was ~ 55 fold.

With O=C(O)c1cc(/C=C/c2ccccc2)nc2c1cnn2Cc1ccncc1 [Compound 92] the “fold loss of affinity/potency toward BasE relative to 15” value (BasE [2]) was ~ 10 fold.

For C#Cc1cc(C(=O)O)c2cnn(Cc3ccncc3)c2n1 [Compound 93, 6-Ethynyl-1-(pyridin-4-ylmethyl)-1H-pyrazolo[3,4-b]pyridine-4-carboxylic acid], the “fold loss of affinity/potency toward BasE relative to 15” value (BasE [2]) was ~ 55 fold.

In the case of O=C(O)c1cc(C#Cc2ccccc2)nc2c1cnn2Cc1ccncc1 [Compound 94, 6-(Phenylethynyl)-1-(pyridin-4-ylmethyl)-1H-pyrazolo[3,4-b]pyridine-4-carboxylic acid], the “fold loss of affinity/potency toward BasE relative to 15” value (BasE [2]) is reported as ~ 10 fold.

For O=C(O)c1cc(=O)[nH]c2c1cnn2Cc1ccncc1 [Compound 98, 6-Oxo-1-(pyridin-4-ylmethyl)-6,7-dihydro-1H-pyrazolo[3,4-b]pyridine-4-carboxylic acid], the “fold loss of affinity/potency toward BasE relative to 15” value (BasE [2]) was greater than 2800 fold.

For O=C(O)c1cc(-c2ccccc2)cc2nn(Cc3ccncc3)cc12 [Compound 99, 6-Phenyl-2-(pyridin-4-ylmethyl)-2H-indazole-4-carboxylic acid], the “fold loss of affinity toward MbtA relative to 15” value (MbtA) was 15.5 fold and the “fold loss of affinity/potency toward BasE relative to 15” value (BasE [2]) was 1800 fold.
